Data on twelve molecules can be found in patent US11066400B2, “Compounds for the treatment of cancer” (Hoffmann-La Roche Inc., priority 2015, dated 2021).

Each structure is given as a SMILES string.

Test [1] concerns FoxM1_ΔVIIa / FoxM1_FL mRNA (FoxM1 gene splicing). Briefly: Monitoring expression levels of FoxM1 splice variants using real-time quantitative PCR. Format: cell-based. The settings on record: Fibroblast; human fibroblasts, 24 hours, RT-qPCR, Hill fit of concentration dependence curves. The procedure:
Human fibroblasts were plated at 10,000 cells/well in 200 μl DMEM with GlutaMAX and 10% FBS in 96-well plates in a cell culture incubator (37° C., 5% CO2, 100% relative humidity). Cells were then treated with compounds at different concentrations (0.1-300 nM, each in 0.5% DMSO) in triplicate for 24 hours. RNA extraction was performed as per instructions mentioned in the Ambion® Cells-to-CT™ Kits from Applied Biosystems®. RNA samples were frozen at −20° C. until further analysis. Relative expression levels of full-length FoxM1 (FoxM1_FL) or FoxM1 lacking exon VIIa (FoxM1_ΔVIIa) with GAPDH for internal control, was measured using one-step multiplex reverse transcription-polymerase chain reaction (RT-PCR). TaqMan® FAM probes were used for relative quantitation of FoxM1_FL or FoxM1_ΔVIIa expression levels and TaqMan® VIC probes were used for relative quantitation of human GAPDH levels. The fidelity of the amplification methods was determined using the ΔΔCt relative quantification method for quantitative PCR.
To investigate an effect on splicing of FoxM1, human fibroblasts were treated for 24 hours with compounds of the present invention in dose response, and analysed by RT-qPCR for presence of mRNA including (FoxM1_FL) or excluding the exon VIIa (FoxM1_ΔVIIa). […] Correspondingly, the mRNAs for FoxM1_ΔVIIa declined. […] The resulting concentration dependence curves of the FoxM1_ΔVIIa splice variant were fitted to a Hill binding equation to yield IC50 values that are described in Table 1. […] Taken together, the data underline a splicing modifying activity in the FoxM1 gene.

Another test relates to SMN protein. The settings on record: taken from Activity Tables of WO 2014/028459, WO 2014/116845, WO 2015/017589; cited from earlier work.

As a reminder, the IC50 is the concentration at which inhibition is half-maximal. A word on the EC50: it is the concentration needed to bring the measured effect to its halfway point. In test [1], `CN(c1nnc(-c2ccc(-c3cn[nH]c3)cc2Cl)s1)C1CC(C)(C)NC(C)(C)C1` [Compound 12, 5-(2-Chloro-4-(1H-pyrazol-4-yl)phenyl)-N-methyl-N-(2,2,6,6-tetramethylpiperidin-4-yl)-1,3,4-thiadiazol-2-amine] came in with an IC50 of 265 nM. For the same molecule, in the test with SMN protein, the 50% effective concentration (EC50) was 34 nM.
In turn, `CN(c1ccc(-c2ccc(C#N)cc2O)nn1)C1CC(C)(C)NC(C)(C)C1` [Compound 1, 3-hydroxy-4-(6-(methyl(2,2,6,6-tetramethylpiperidin-4-yl)amino)pyridazin-3-yl)benzonitrile] had an IC50 in test [1] of 41 nM.
In test [1], `CN(c1ccc(-c2ccc(-c3ccc(=O)n(C)c3)cc2O)nn1)C1CC(C)(C)NC(C)(C)C1` [Compound 7, 5-(3-hydroxy-4-(6-(methyl-(2,2,6,6-tetramethylpiperidin-4-yl)amino)pyridazin-3-yl)phenyl)-1-methylpyridin-2(1H)-one] had an IC50 of 167 nM.
As for `CN(c1nnc(-c2cc(F)c(-c3ccn[nH]3)cc2F)s1)C1CC(C)(C)NC(C)(C)C1` [Compound 14, 5-(2,5-difluoro-4-(1H-pyrazol-5-yl)phenyl)-N-methyl-N-(2,2,6,6-tetramethylpiperidin-4-yl)-1,3,4-thiadiazol-2-amine], the concentration for half-maximal inhibition (IC50) in test [1] is 144 nM. The EC50 in the test on SMN protein is 85 nM.
`CN(c1ccc(-c2cc3ccccc3cc2O)nn1)C1CC(C)(C)NC(C)(C)C1` [Compound 8, 3-(6-(methyl(2,2,6,6-tetramethylpiperidin-4-yl)amino)pyridazin-3-yl)naphthalen-2-ol] registered an IC50 in test [1] of 3.7 nM.
In test [1], `CN(c1ccc(-c2cc3ccc(O)cc3cc2O)nn1)C1CC(C)(C)NC(C)(C)C1` [Compound 9, 3-(6-(methyl-(2,2,6,6-tetramethylpiperidin-4-yl)amino)pyridazin-3-yl)naphthalene-2,7-diol] registered a half-maximal inhibitory concentration (IC50) of 0.7 nM.
`CN(c1ccc(-c2ccc(-c3cnn(C)c3)cc2O)nn1)C1CC(C)(C)NC(C)(C)C1` [Compound 3, 2-(6-(methyl-(2,2,6,6-tetramethylpiperidin-4-yl)amino)pyridazin-3-yl)-5-(1-methyl-1H-pyrazol-4-yl)phenol] gave an IC50 in test [1] of 9.8 nM.
The same measure, in the same setting: then `COc1ccc2cc(-c3ccc(N(C)C4CC(C)(C)NC(C)(C)C4)nn3)c(O)cc2c1` [Compound 11, 7-methoxy-3-(6-(methyl(2,2,6,6-tetramethylpiperidin-4-yl)amino)pyridazin-3-yl)naphthalen-2-ol], with 0.8 nM.
`CN(c1nnc(-c2ccc(-c3ccn(C)c(=O)c3)cc2Cl)s1)C1CC(C)(C)NC(C)(C)C1` [Compound 13, 4-(3-chloro-4-(5-(methyl(2,2,6,6-tetramethylpiperidin-4-yl)amino)-1,3,4-thiadiazol-2-yl)phenyl)-1-methylpyridin-2(1H)-one] had an IC50 in test [1] of 345 nM. Also, in the test on SMN protein, the EC50 was 50 nM.
In test [1], `CC1(C)CC(Oc2ccc(-c3ccc(-n4cccn4)cc3O)nn2)CC(C)(C)N1` [Compound 5] returned an IC50 of 278 nM.
Take `CC1(C)CC(Oc2ccc(-c3ccc(-c4cn[nH]c4)cc3O)nn2)CC(C)(C)N1` [Compound 4]: the IC50 in test [1] came to 17 nM.
Same read-out and setting: then `CN(c1ccc(-c2ccc(-c3cn[nH]c3)cc2O)nn1)C1CC(C)(C)NC(C)(C)C1` [Compound 2, 5-(1H-pyrazol-4-yl)-2-(6-(methyl(2,2,6,6-tetramethylpiperidin-4-yl)amino)pyridazin-3-yl)phenol], with 0.9 nM.
